According to article PMC7481357, “N-terminal Myristoylation Enhanced the Antimicrobial Activity of Antimicrobial Peptide PMAP-36PW” (Frontiers in Cellular and Infection Microbiology, 2020):
“Also recorded” adds a separate entry of the source. Residues, ends and D or L forms follow the SMILES beside them. *: point of attachment. Myristoyl = CCCCCCCCCCCCCC(=O)*

Assays:
[1] = test system: L. monocytogenes CICC 21634; test: Inhibition zone assay (disk diffusion); assay type: cell-based, Listeria monocytogenes; parameters: key: +, means the peptide has antibacterial activity; conditions: disk 10 μg peptide, 18 h at 37°C, * P < 0.05, ** P < 0.01 vs PMAP-36PW
Method: The inhibition zone assay was performed through the disk diffusion to evaluate the antimicrobial activity of Myr-36PW in vitro (Dunne et al., [2017]). The four above-mentioned bacterial strains were used as experimental strains, with L. monocytogenes CICC 21634 cultured in BHI medium, and P. aeruginosa GIM 1.551 cultured in TSB medium. The bacterial cells were cultured for 12 h at 37°C in the appropriate medium, and the bacterial cell suspension was spread on LB agar. The disks containing 10 μg of peptides (1 μg/μL) were attached to the solid medium and incubated at 37°C for 18 h. Finally the diameter of the inhibition zone was measured.

[2] = test system: S. aureus ATCC 25923, S. typhimurium SL 1344, and P. aeruginosa GIM 1.551; test: Biofilm inhibition assay (crystal violet); assay type: cell-based; conditions: 0.25–128 μg/mL, 24 h at 37°C, crystal violet OD 620 nm; n = 5
Method: The biofilm-inhibiting ability of Myr-36PW was evaluated against S. aureus ATCC 25923, S. typhimurium SL 1344, and P. aeruginosa GIM 1.551 by using crystal violet dye (Chen et al., [2018]; de Breij et al., [2018]). Overnight cultured strains in TSB medium were diluted to 1 × 10^6 CFU/mL, 100 μL of bacterial suspension with 100 μL of different concentration of peptides (0.25–128 μg/mL) was added into a 96-well plate. Bacterial suspension without peptides was used the negative control. After incubation for 24 h at 37°C, the supernatant weas discarded, and the biofilm was gently washed with PBS, fixed in methanol for 20 min, stained with 0.1% (w/v) crystal violet for 10 min, and finally removed. After washing with PBS, 95% ethanol was added into wells, and the optical density (OD) was measured at 620 nm.
(§1) Figure 6 Biofilm inhibition and eradication of Myr-36PW. (A–C) Inhibition of biofilm formation by Myr-36PW. (D) Eradication of preformed biofilm by Myr-36PW. (E) Killing effect of Myr-36PW against biofilm bacteria. Inhibition rate % = [1 – OD620 nm(peptides)/OD620 nm(bacteria)] × 100%. Biofilm mass % = OD620 nm(peptides)/OD620 nm(control) × 100%. The control group was bacterial culture without peptides. Data represent the mean ± SD (n = 5).

[3] = test system: S. aureus ATCC 25923, S. typhimurium SL 1344, and P. aeruginosa GIM 1.551; test: Biofilm eradication assay (crystal violet and colony count); assay type: cell-based; conditions: 128 μg/mL, n = 5
Method: The biofilm-eradicating ability of Myr-36PW was determined against S. aureus ATCC 25923, S. typhimurium SL 1344, and P. aeruginosa GIM 1.551 (Chen et al., [2018]; de Breij et al., [2018]). In brief, 200 μL of bacterial dilution (1 × 10^6 CFU/mL) was added into a 96-well plate and incubated for 24 h at 37°C to form a biofilm, which was washed three times with PBS. Subsequently, 200 μL of peptides at 128 μg/mL were added to the wells. After incubation for 1 h at 37°C, the OD of each well was measured at 620 nm by crystal violet staining. The wells were gently washed three times with PBS after 1 h incubation to evaluate the killing effect of Myr-36PW against bacteria in the biofilm. Afterward, 100 μL of suspension was serially diluted and spread on LB agar plates, and bacterial colony was measured.
as §1

P. aeruginosa GIM 1.551 = test: Subcutaneous abscess model; assay type: in vivo, BALB/c mice; conditions: injected 20 μL, 1 μg/μL, once a day for 3 days
Method: A subcutaneous abscess model in vivo was established as previously reported (Zhao et al., [2019]). The mouse dorsal region with 3.0 cm diameter was treated with hair pusher. A total of 120 mice were randomly divided into two experimental models, one was challenged with S. aureus ATCC 25923 (2.5 × 10^8 CFU/mL, 60 μL), and the other was challenged with P. aeruginosa GIM 1.551 (3.0 × 10^8 CFU/mL, 60 μL). In the S. aureus ATCC 25923 model, 60 mice were divided into six groups of 10 members. The mice with no infection and treatment was used as a blank control, those directly injected with PBS (20 μL) as the negative control group, those injected with benzylpenicillin potassium (20 μL, 1 μg/μL) as the positive control group, and the remaining three groups as the treatment groups injected with Myr-36PW (20 μL, 1 μg/μL), PMAP-36PW (20 μL, 1 μg/μL), and PMAP-36 (20 μL, 1 μg/μL). The procedure in P. aeruginosa GIM 1.551 model is the same as that in S. aureus ATCC 25923 model, except for the use of ampicillin sodium as a positive control. Treatment once a day for 3 days was initiated when the mice developed prominent pustules on their backs. A day after the treatment, the size of the abscess was observed, and its tissues were excised, homogenized, and serially diluted. Bacteria CFU counts were calculated.
Figure 10 Treatment efficacy of subcutaneous abscess by Myr-36PW in vivo. Mice were injected with S. aureus ATCC 25923 or P. aeruginosa GIM 1.551 to develop a subcutaneous abscess before treatment. (A) Changes in the abscess area of mice after 3 days treatment. (B,C) Quantitative analysis of bacterial CFU in abscess area that received 3 days treatment under various experimental conditions. The number of CFU in each treatment group was normalized by using the CFU of the experimental group divided by the CFU of the PBS group (100%). BP is benzylpenicillin potassium, AS is ampicillin sodium. Data represent the mean ± SD of five individual experiments. *P < 0.05 and **P < 0.01, compared with PBS. ^#P < 0.05 and ^##P < 0.01, compared with PMAP-36PW.

CCCCCCCCCCCCCC(=O)NCC(=O)NCC(=O)N[C@@H](CCCNC(=N)N)C(=O)N[C@@H](Cc1ccccc1)C(=O)N[C@@H](CCCNC(=N)N)C(=O)N[C@@H](CCCNC(=N)N)C(=O)N[C@@H](CC(C)C)C(=O)N[C@@H](CCCNC(=N)N)C(=O)N[C@@H](CCCCN)C(=O)N[C@@H](CCCCN)C(=O)N[C@H](C(=O)N[C@@H](CCCNC(=N)N)C(=O)N[C@@H](CCCCN)C(=O)N[C@@H](CCCNC(=N)N)C(=O)N[C@@H](CC(C)C)C(=O)N[C@@H](CCCCN)C(=O)N[C@@H](CCCCN)C(=O)N[C@H](C(=O)NCC(=O)N[C@@H](CCCCN)C(=O)N[C@H](C(=O)N[C@@H](CC(C)C)C(=O)N[C@@H](CCCCN)C(=O)N[C@@H](Cc1c[nH]c2ccccc12)C(=O)N[C@H](C(=O)N[C@@H](Cc1c[nH]c2ccccc12)C(=O)N[C@@H](Cc1c[nH]c2ccccc12)C(=O)N[C@H](C(=O)N[C@H](C(=O)NCC(=O)N[C@@H](CO)C(=O)N[C@H](C(=O)N1CCC[C@H]1C(=O)N[C@@H](CC(C)C)C(=O)NCC(=O)N[C@@H](CS)C(=O)NCC(=O)O)[C@@H](C)CC)C(C)C)[C@@H](C)CC)[C@@H](C)CC)C(C)C)[C@@H](C)CC)[C@@H](C)O [Myr-36PW] (Myristoyl-GGRFRRLRKKTRKRLKKIGKVLKWIWWIVGSIPLGCG-OH; C-terminus assumed)
In vitro antibacterial activity (disk diffusion) [1]: +** | Inhibition of biofilm formation [2]: biofilm inhibition against the tested bacteria in a concentration-dependent manner | Eradication of preformed biofilm ([3]; 1 h at 37°C on 24 h biofilm, crystal violet OD 620 nm): only eradicated the preformed biofilm in Gram-negative bacteria | Killing effect against biofilm bacteria ([3]; 1 h at 37°C, colony count): bacterial killing effect except against S. aureus ATCC 25923 | Abscess area (P. aeruginosa GIM 1.551): significantly reduced the abscess area and effectively suppressed its growth | Bacterial CFU in abscess area (P. aeruginosa GIM 1.551; vs PMAP-36PW: Myr-36PW P < 0.05, ampicillin sodium P < 0.01, n = 5): significant difference compared with that of PBS group (P < 0.01); also recorded: lower than that of PMAP-36PW group
